target: T1, CXCR7 (Homo sapiens, UniProt P25106); assay: PathHunter CHO-K1 CXCR7 b-arrestin recruitment assay (CXCR7 agonistic activity); format: cell-based; conditions: PathHunter CHO-K1 CXCR7 b-arrestin cell line
T1 construct: host or cells: CHO-K1 (PathHunter CHO-K1 CXCR7 b-arrestin cell line, stably transfected)
Summary of the method: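 Stable CHO-K1 line with C-terminally ProLink-tagged CXCR7 and β-arrestin 2–EA fusion; β-arrestin recruitment restores β-gal activity, read by chemiluminescence after 1 h RT detection. Cells seeded 24 h, starved in OPTIMEM 3–4 h, exposed to compounds 90 min at 37 °C in HBSS/HEPES/BSA. Geometric-mean EC50 from repeated measurements.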

T1 sequence (P25106 whole entry): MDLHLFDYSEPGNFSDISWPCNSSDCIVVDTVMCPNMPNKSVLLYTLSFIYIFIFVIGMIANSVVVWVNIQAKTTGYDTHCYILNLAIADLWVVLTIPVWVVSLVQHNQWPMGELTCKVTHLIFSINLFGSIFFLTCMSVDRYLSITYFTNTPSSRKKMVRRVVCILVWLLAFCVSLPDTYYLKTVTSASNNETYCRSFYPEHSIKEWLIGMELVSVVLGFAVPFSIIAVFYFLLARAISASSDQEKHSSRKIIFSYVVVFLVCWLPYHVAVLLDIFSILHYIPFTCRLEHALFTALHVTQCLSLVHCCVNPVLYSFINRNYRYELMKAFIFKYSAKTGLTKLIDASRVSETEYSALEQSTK
T1 sequence (P32121 whole entry partner): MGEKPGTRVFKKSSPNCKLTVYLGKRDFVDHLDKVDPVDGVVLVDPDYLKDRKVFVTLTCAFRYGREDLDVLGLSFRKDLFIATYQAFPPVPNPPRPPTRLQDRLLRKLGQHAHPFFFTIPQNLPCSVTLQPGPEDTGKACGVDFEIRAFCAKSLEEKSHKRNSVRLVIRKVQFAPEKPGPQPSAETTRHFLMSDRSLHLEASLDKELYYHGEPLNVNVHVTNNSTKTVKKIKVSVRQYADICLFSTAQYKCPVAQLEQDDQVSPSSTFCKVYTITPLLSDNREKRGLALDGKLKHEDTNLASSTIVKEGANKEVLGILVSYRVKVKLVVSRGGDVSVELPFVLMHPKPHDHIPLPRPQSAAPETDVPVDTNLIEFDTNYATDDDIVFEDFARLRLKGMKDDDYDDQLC

Compound | EC50
CCC(=O)N1CCc2cccc(NCC(=O)N(CCN(C)C)Cc3ccccc3C(F)(F)F)c2C1 [compound 559, N-(2-Dimethylamino-ethyl)-2-(2-propionyl-1,2,3,4-tetrahydro-isoquinolin-8-ylamino)-N-(2-trifluoromethyl-benzyl)-acetamide] | 13 nM
CN(C)CCN(Cc1ccccc1C(F)(F)F)C(=O)CNc1cccc2c1CCN(C1CCCC1)C2 [Example 210, 2-((2-Cyclopentyl-1,2,3,4-tetrahydroisoquinolin-5-yl)amino)-N-(2-(dimethylamino)ethyl)-N-(2-(trifluoromethyl)benzyl)acetamide] | 5 nM
CNC(=O)N1CCc2cccc(NCC(=O)N(CCN(C)C)Cc3ccccc3C(F)(F)F)c2C1 [Example 547, 8-({[(2-Dimethylamino-ethyl)-(2-trifluoromethyl-benzyl)-carbamoyl]-methyl}-amino)-3,4-dihydro-1H-isoquinoline-2-carboxylic acid methylamide] | 15 nM
CCC(=O)N1CCc2c(cccc2NCC(=O)N(CCN(C)C)Cc2ccc(C(F)(F)F)cc2)C1 [Example 34, N-(2-Dimethylamino-ethyl)-2-(2-propionyl-1,2,3,4-tetrahydro-isoquinolin-5-ylamino)-N-(4-trifluoromethyl-benzyl)-acetamide] | 132 nM

From patent publication US9920010B2, “CXCR7 receptor modulators” (IDORSIA PHARMACEUTICALS LTD, priority 2013, dated 2018)
